# Measurements published in patent US20230372498A1, “PLK1 SELECTIVE DEGRADATION INDUCING COMPOUND” (UPPTHERA, priority 2020, published 2023).
# Biological target: T1, PLK1 (Homo sapiens, UniProt P53350)
# T1 construct: endogenous in cells; host or cells: HeLa
# Assay: PLK1 protein degradation in HeLa cells, Western blotting (PLK1/GAPDH ratio)
# Assay type: cell-based
# Details: 6 hours compound incubation; for DC50: measured only if the grade of Dmax is A or B; for Dmax: thymidine block and release, 10 points three-fold from 3 μM, PLK1 to GAPDH ratio, read-out: Dmax
# Summary of the method: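 Thymidine-synchronised HeLa cells (2 mM, 24 h) released 4 h into complete medium, then treated 6 h with compound in 10-point 3-fold dilutions from 3 μM. RIPA lysates (15 μg protein) run on SDS-PAGE; PLK1 Western blot normalised to GAPDH.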
# T1 sequence (P53350 whole entry): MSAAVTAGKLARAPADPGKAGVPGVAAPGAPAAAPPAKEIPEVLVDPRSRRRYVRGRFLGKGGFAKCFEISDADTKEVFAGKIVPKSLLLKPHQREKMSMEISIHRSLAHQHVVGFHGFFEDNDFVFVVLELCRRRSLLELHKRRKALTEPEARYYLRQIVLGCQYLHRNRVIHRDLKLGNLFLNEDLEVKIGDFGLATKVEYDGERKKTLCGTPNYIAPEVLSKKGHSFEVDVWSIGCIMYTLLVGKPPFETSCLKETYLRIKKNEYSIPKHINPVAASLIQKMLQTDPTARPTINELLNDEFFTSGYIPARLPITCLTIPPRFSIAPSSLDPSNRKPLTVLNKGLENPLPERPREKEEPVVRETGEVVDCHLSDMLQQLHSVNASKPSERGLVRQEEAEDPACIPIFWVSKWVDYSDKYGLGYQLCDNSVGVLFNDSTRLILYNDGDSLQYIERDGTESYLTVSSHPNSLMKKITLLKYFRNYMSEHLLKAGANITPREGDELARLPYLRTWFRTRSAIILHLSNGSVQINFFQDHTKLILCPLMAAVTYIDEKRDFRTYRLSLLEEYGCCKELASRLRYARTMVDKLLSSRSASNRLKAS
DC50 [µM],Dmax [%],Compound
≤ 0.5,60 to 80,"COc1cc(C(=O)NC2CCN(C[C@@H]3C[C@@H]3CNc3cccc4c3C(=O)N(C3CCC(=O)NC3=O)C4=O)CC2)c(F)cc1Nc1ncc2c(n1)N(C1CCCC1)CC(F)(F)C(=O)N2C (stereo partly drawn) [Compound 48, 4-((9-cyclopentyl-7,7-difluoro-5-methyl-6-oxo-6,7,8,9-tetrahydro-5H-pyrimido[4,5-b][1,4]diazepin-2-yl)amino)-N-(1-(((1R,2S)-2-(((2-(2,6-dioxopiperidin-3-yl)-1,3-dioxoisoindolin-4-yl)amino)methyl)cyclopropyl)methyl)piperidin-4-yl)-2-fluoro-5-methoxybenzamide]"
≤ 0.5,60 to 80,"COc1cc(C(=O)NC2CCN(CCOCCN(C)CCNc3cccc4c3C(=O)N(C3CCC(=O)NC3=O)C4=O)CC2)c(F)cc1Nc1ncc2c(n1)N(C1CCCC1)CC(F)(F)C(=O)N2C (stereo not shown) [Compound 49, 4-((9-cyclopentyl-7,7-difluoro-5-methyl-6-oxo-6,7,8,9-tetrahydro-5H-pyrimido[4,5-b][1,4]diazepin-2-yl)amino)-N-(1-(2-(2-((2-((2-(2,6-dioxopiperidin-3-yl)-1,3-dioxoisoindolin-4-yl)amino)ethyl)(methyl)amino)ethoxy)ethyl)piperidin-4-yl)-2-fluoro-5-methoxybenzamide]"
≤ 0.05,≥ 80,"COc1cc(C(=O)NC2CCN(CCOCCOCCNc3ccc4c(c3)C(=O)N(C3CCC(=O)NC3=O)C4=O)CC2)c(F)cc1Nc1ncc2c(n1)N(C1CCCC1)CC(F)(F)C(=O)N2C (stereo not shown) [Compound 50, 4-((9-cyclopentyl-7,7-difluoro-5-methyl-6-oxo-6,7,8,9-tetrahydro-5H-pyrimido[4,5-b][1,4]diazepin-2-yl)amino)-N-(1-(2-(2-(2-((2-(2,6-dioxopiperidin-3-yl)-1,3-dioxoisoindolin-5-yl)amino)ethoxy)ethoxy)ethyl)piperidin-4-yl)-2-fluoro-5-methoxybenzamide]"
≤ 0.05,≥ 80,"COc1cc(C(=O)NC2CCN(CCOCCOCCOCCOCCNc3ccc4c(c3)C(=O)N(C3CCC(=O)NC3=O)C4=O)CC2)c(F)cc1Nc1ncc2c(n1)N(C1CCCC1)CC(F)(F)C(=O)N2C (stereo not shown) [Compound 51, 4-((9-cyclopentyl-7,7-difluoro-5-methyl-6-oxo-6,7,8,9-tetrahydro-5H-pyrimido[4,5-b][1,4]diazepin-2-yl)amino)-N-(1-(14-((2-(2,6-dioxopiperidin-3-yl)-1,3-dioxoisoindolin-5-yl)amino)-3,6,9,12-tetraoxatetradecyl)piperidin-4-yl)-2-fluoro-5-methoxybenzamide]"
≤ 0.05,≥ 80,"COc1cc(C(=O)NC2CCN(CCOCCOCCOCCOCC#Cc3cccc4c3C(=O)N(C3CCC(=O)NC3=O)C4=O)CC2)c(F)cc1Nc1ncc2c(n1)N(C1CCCC1)CC(F)(F)C(=O)N2C (stereo not shown) [Compound 52, 4-((9-cyclopentyl-7,7-difluoro-5-methyl-6-oxo-6,7,8,9-tetrahydro-5H-pyrimido[4,5-b][1,4]diazepin-2-yl)amino)-N-(1-(15-(2-(2,6-dioxopiperidin-3-yl)-1,3-dioxoisoindolin-4-yl)-3,6,9,12-tetraoxapentadec-14-yn-1-yl)piperidin-4-yl)-2-fluoro-5-methoxybenzamide]"
≤ 0.05,≥ 80,"COc1cc(C(=O)NC2CCN(CCOCCOCCOCCOCCCc3cccc4c3C(=O)N(C3CCC(=O)NC3=O)C4=O)CC2)c(F)cc1Nc1ncc2c(n1)N(C1CCCC1)CC(F)(F)C(=O)N2C (stereo not shown) [Compound 53, 4-((9-cyclopentyl-7,7-difluoro-5-methyl-6-oxo-6,7,8,9-tetrahydro-5H-pyrimido[4,5-b][1,4]diazepin-2-yl)amino)-N-(1-(15-(2-(2,6-dioxopiperidin-3-yl)-1,3-dioxoisoindolin-4-yl)-3,6,9,12-tetraoxapentadecyl)piperidin-4-yl)-2-fluoro-5-methoxybenzamide]"
≤ 0.5,60 to 80,"COc1cc(C(=O)NC2CCN(CCOCCOCC#Cc3cccc4c3C(=O)N(C3CCC(=O)NC3=O)C4=O)CC2)c(F)cc1Nc1ncc2c(n1)N(C1CCCC1)CC(F)(F)C(=O)N2C (stereo not shown) [Compound 54, 4-((9-cyclopentyl-7,7-difluoro-5-methyl-6-oxo-6,7,8,9-tetrahydro-5H-pyrimido[4,5-b][1,4]diazepin-2-yl)amino)-N-(1-(2-(2-((3-(2-(2,6-dioxopiperidin-3-yl)-1,3-dioxoisoindolin-4-yl)prop-2-yn-1-yl)oxy)ethoxy)ethyl)piperidin-4-yl)-2-fluoro-5-methoxybenzamide]"
≤ 0.5,60 to 80,"COc1cc(C(=O)NC2CCN(CCOCCOCCCc3cccc4c3C(=O)N(C3CCC(=O)NC3=O)C4=O)CC2)c(F)cc1Nc1ncc2c(n1)N(C1CCCC1)CC(F)(F)C(=O)N2C (stereo not shown) [Compound 55, 4-((9-cyclopentyl-7,7-difluoro-5-methyl-6-oxo-6,7,8,9-tetrahydro-5H-pyrimido[4,5-b][1,4]diazepin-2-yl)amino)-N-(1-(2-(2-(3-(2-(2,6-dioxopiperidin-3-yl)-1,3-dioxoisoindolin-4-yl)propoxy)ethoxy)ethyl)piperidin-4-yl)-2-fluoro-5-methoxybenzamide]"
≤ 0.5,60 to 80,"COc1cc(C(=O)NC2CCN(CCOCCNC(=O)COc3cccc4c3C(=O)N(C3CCC(=O)NC3=O)C4=O)CC2)c(F)cc1Nc1ncc2c(n1)N(C1CCCC1)CC(F)(F)C(=O)N2C (stereo not shown) [Compound 56, 4-((9-cyclopentyl-7,7-difluoro-5-methyl-6-oxo-6,7,8,9-tetrahydro-5H-pyrimido[4,5-b][1,4]diazepin-2-yl)amino)-N-(1-(2-(2-(2-((2-(2,6-dioxopiperidin-3-yl)-1,3-dioxoisoindolin-4-yl)oxy)acetamido)ethoxy)ethyl)piperidin-4-yl)-2-fluoro-5-methoxybenzamide]"
≤ 0.5,60 to 80,"COc1cc(C(=O)NC2CCN(CCOCCOCCOCCNC(=O)COc3cccc4c3C(=O)N(C3CCC(=O)NC3=O)C4=O)CC2)c(F)cc1Nc1ncc2c(n1)N(C1CCCC1)CC(F)(F)C(=O)N2C (stereo not shown) [Compound 57, 4-((9-cyclopentyl-7,7-difluoro-5-methyl-6-oxo-6,7,8,9-tetrahydro-5H-pyrimido[4,5-b][1,4]diazepin-2-yl)amino)-N-(1-(1-((2-(2,6-dioxopiperidin-3-yl)-1,3-dioxoisoindolin-4-yl)oxy)-2-oxo-6,9,12-trioxa-3-azatetradecan-14-yl)piperidin-4-yl)-2-fluoro-5-methoxybenzamide]"
–,< 60,"COc1cc(C(=O)NC2CCN(CCOCCOCCOCCOCCOCCOCCOCCNC(=O)COc3cccc4c3C(=O)N(C3CCC(=O)NC3=O)C4=O)CC2)c(F)cc1Nc1ncc2c(n1)N(C1CCCC1)CC(F)(F)C(=O)N2C (stereo not shown) [Compound 58, 4-((9-cyclopentyl-7,7-difluoro-5-methyl-6-oxo-6,7,8,9-tetrahydro-5H-pyrimido[4,5-b][1,4]diazepin-2-yl)amino)-N-(1-(1-((2-(2,6-dioxopiperidin-3-yl)-1,3-dioxoisoindolin-4-yl)oxy)-2-oxo-6,9,12,15,18,21,24-heptaoxa-3-azahexacosan-26-yl)piperidin-4-yl)-2-fluoro-5-methoxybenzamide]"
–,< 60,"COc1cc(C(=O)NC2CCN(CCCCCNC(=O)COc3cccc4c3C(=O)N(C3CCC(=O)NC3=O)C4=O)CC2)c(F)cc1Nc1ncc2c(n1)N(C1CCCC1)CC(F)(F)C(=O)N2C (stereo not shown) [Compound 59, 4-((9-cyclopentyl-7,7-difluoro-5-methyl-6-oxo-6,7,8,9-tetrahydro-5H-pyrimido[4,5-b][1,4]diazepin-2-yl)amino)-N-(1-(5-(2-((2-(2,6-dioxopiperidin-3-yl)-1,3-dioxoisoindolin-4-yl)oxy)acetamido)pentyl)piperidin-4-yl)-2-fluoro-5-methoxybenzamide]"
≤ 0.05,≥ 80,"COc1cc(C(=O)NC2CCN(CCC(=O)NCCCCCCCNC(=O)COc3cccc4c3C(=O)N(C3CCC(=O)NC3=O)C4=O)CC2)c(F)cc1Nc1ncc2c(n1)N(C1CCCC1)CC(F)(F)C(=O)N2C (stereo not shown) [Compound 60, 4-((9-cyclopentyl-7,7-difluoro-5-methyl-6-oxo-6,7,8,9-tetrahydro-5H-pyrimido[4,5-b][1,4]diazepin-2-yl)amino)-N-(1-(3-((7-(2-((2-(2,6-dioxopiperidin-3-yl)-1,3-dioxoisoindolin-4-yl)oxy)acetamido)heptyl)amino)-3-oxopropyl)piperidin-4-yl)-2-fluoro-5-methoxybenzamide]"
≤ 0.05,60 to 80,"COc1cc(C(=O)NC2CCN(Cc3cccc(CNC(=O)COc4cccc5c4C(=O)N(C4CCC(=O)NC4=O)C5=O)c3)CC2)c(F)cc1Nc1ncc2c(n1)N(C1CCCC1)CC(F)(F)C(=O)N2C (stereo not shown) [Compound 61, 4-((9-cyclopentyl-7,7-difluoro-5-methyl-6-oxo-6,7,8,9-tetrahydro-5H-pyrimido[4,5-b][1,4]diazepin-2-yl)amino)-N-(1-(3-((2-((2-(2,6-dioxopiperidin-3-yl)-1,3-dioxoisoindolin-4-yl)oxy)acetamido)methyl)benzyl)piperidin-4-yl)-2-fluoro-5-methoxybenzamide]"
≤ 0.05,60 to 80,"COc1cc(C(=O)NC2CCN(Cc3cncc(CNC(=O)COc4cccc5c4C(=O)N(C4CCC(=O)NC4=O)C5=O)c3)CC2)c(F)cc1Nc1ncc2c(n1)N(C1CCCC1)CC(F)(F)C(=O)N2C (stereo not shown) [Compound 62, 4-((9-cyclopentyl-7,7-difluoro-5-methyl-6-oxo-6,7,8,9-tetrahydro-5H-pyrimido[4,5-b][1,4]diazepin-2-yl)amino)-N-(1-((5-((2-((2-(2,6-dioxopiperidin-3-yl)-1,3-dioxoisoindolin-4-yl)oxy)acetamido)methyl)pyridin-3-yl)methyl)piperidin-4-yl)-2-fluoro-5-methoxybenzamide]"
